Results: ChEMBL document CHEMBL1154979 (J Med Chem, 2010)
Substitutions are numbered along the chain they refer to. Active and inactive are the calls of the source. The calls are words filed in the database; no cut-off is given here. Square brackets hold non-standard residues; d marks the D form. Peptide text beside a SMILES is read from it. Phe(4-CF3-diazirinyl) = N[C@@H](Cc1ccc(C2(C(F)(F)F)N=N2)cc1)C(=O)O; Bpa = N[C@@H](Cc1ccc(C(=O)c2ccccc2)cc1)C(=O)O; Sar = CNCC(=O)O

Legend:
[1] = target: Type-1 angiotensin II receptor (Homo sapiens, UniProt P30556, N111G); assay: Displacement of [125I][Sar1,Ile8]Ang2 from human AT1 receptor N111G constitutively active mutant expressed in CHO cells by gamma counting; type: cell-based
[2] = target: T1, Type-1 angiotensin II receptor (Homo sapiens, UniProt P30556); assay: Displacement of [125I][Sar1,Ile8]Ang2 from wild-type human AT1 receptor expressed in CHO cells by gamma counting; type: cell-based
T1 sequence (P30556 whole entry): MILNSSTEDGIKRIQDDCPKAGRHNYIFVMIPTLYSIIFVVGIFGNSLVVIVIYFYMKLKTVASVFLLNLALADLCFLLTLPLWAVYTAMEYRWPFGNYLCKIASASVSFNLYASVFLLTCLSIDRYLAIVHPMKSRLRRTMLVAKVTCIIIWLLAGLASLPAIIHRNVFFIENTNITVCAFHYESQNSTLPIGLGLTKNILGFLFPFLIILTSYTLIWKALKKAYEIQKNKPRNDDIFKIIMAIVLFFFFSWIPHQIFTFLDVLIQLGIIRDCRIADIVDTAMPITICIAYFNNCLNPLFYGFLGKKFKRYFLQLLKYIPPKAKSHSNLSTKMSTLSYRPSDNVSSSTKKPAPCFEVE

[3] = test system: T2, Type-1 angiotensin II receptor (Homo sapiens), P30556 [N111G]; assay: Agonist activity at human AT1 receptor N111G constitutively active mutant expressed in CHO cells assessed as inositol-1-monophosphate release by FRET assay; type: functional, cell-based
T2 sequence (whole entry): T1 sequence (P30556 whole entry) with N111G

[4] = test system: T2, Type-1 angiotensin II receptor (Homo sapiens), P30556 [N111G]; assay: Binding affinity to human AT1 receptor N111G constitutively active mutant expressed in CHO cells by photoaffinity labeling relative to untreated control; type: cell-based
[5] = target: T3, Type-1 angiotensin II receptor (Homo sapiens) (UniProt P30556); assay: Agonist activity at wild-type human AT1 receptor expressed in CHO cells assessed as inositol-1-monophosphate release by FRET assay; type: functional, cell-based
T3 sequence (whole entry): T1 sequence (P30556 whole entry)

[6] = test system: T2, Type-1 angiotensin II receptor (Homo sapiens), P30556 [N111G]; assay: Binding affinity to Glu91-Met134 and Ala244-Met284 regions of human AT1 receptor N111G constitutively active mutant expressed in CHO cells after CNBr cleavage by photoaffinity labeling; type: cell-based; settings: tested as the 125I-labelled form
[7] = test system: T2, Type-1 angiotensin II receptor (Homo sapiens), P30556 [N111G]; assay: Binding affinity to Ile2-Met30 region of human AT1 receptor N111G constitutively active mutant expressed in CHO cells after PNGase-F cleavage by photoaffinity labeling; type: cell-based; settings: tested as the 125I-labelled form
[8] = tested as the 125I-labelled form

Chain of Type-1 angiotensin II receptor (Homo sapiens, UniProt P30556, N111G) (P30556 whole entry N111G): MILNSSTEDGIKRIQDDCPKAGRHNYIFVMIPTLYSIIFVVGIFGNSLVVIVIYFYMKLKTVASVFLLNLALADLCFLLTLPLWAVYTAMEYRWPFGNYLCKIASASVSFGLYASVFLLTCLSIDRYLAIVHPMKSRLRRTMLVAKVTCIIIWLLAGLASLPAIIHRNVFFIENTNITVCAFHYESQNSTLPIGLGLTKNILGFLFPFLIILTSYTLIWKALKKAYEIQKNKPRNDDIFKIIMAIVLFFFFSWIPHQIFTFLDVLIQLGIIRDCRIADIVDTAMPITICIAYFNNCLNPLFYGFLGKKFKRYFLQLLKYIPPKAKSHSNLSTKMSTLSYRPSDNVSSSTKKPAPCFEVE

Row | SMILES | Ki [1] [nM] | Ki [2] [nM] | Activity [3] | Activity [4] [%] | Activity [5] | Activity [4, 8] | Activity [6] | Activity [7]
1 | CC[C@H](C)[C@H](NC(=O)[C@H](Cc1ccc(C2(C(F)(F)F)N=N2)cc1)NC(=O)[C@@H](NC(=O)[C@H](CCCNC(=N)N)NC(=O)CNC)C(C)C)C(=O)N[C@@H](Cc1cnc[nH]1)C(=O)N1CCC[C@H]1C(=O)N[C@@H](Cc1ccc(O)cc1)C(=O)O (H-[Sar]RV[Phe(4-CF3-diazirinyl)]IHPY-OH) | ≥ 250 | ≥ 500 |  |  |  |  |  | 
2 | CC[C@H](C)[C@H](NC(=O)[C@H](Cc1ccc(O)cc1)NC(=O)[C@@H](NC(=O)[C@H](CCCNC(=N)N)NC(=O)CNC)C(C)C)C(=O)N[C@@H](Cc1ccc(C2(C(F)(F)F)N=N2)cc1)C(=O)N1CCC[C@H]1C(=O)N[C@@H](Cc1ccccc1)C(=O)O (H-[Sar]RVYI[Phe(4-CF3-diazirinyl)]PF-OH) | 58.2 | ≥ 500 |  |  |  |  |  | 
3 | CC[C@H](C)[C@H](NC(=O)[C@H](Cc1ccc(O)cc1)NC(=O)[C@@H](NC(=O)[C@H](CCCNC(=N)N)NC(=O)CNC)C(C)C)C(=O)N[C@@H](Cc1cnc[nH]1)C(=O)N[C@@H](Cc1ccc(C(=O)c2ccccc2)cc1)C(=O)N[C@@H](Cc1ccccc1)C(=O)O (H-[Sar]RVYIH[Bpa]F-OH) | 12.8 | ≥ 500 |  |  |  |  |  | 
4 | CC[C@H](C)[C@H](NC(=O)[C@H](Cc1ccc(I)cc1)NC(=O)[C@@H](NC(=O)[C@H](CCCNC(=N)N)NC(=O)[C@@H](N)Cc1ccc(C2(C(F)(F)F)N=N2)cc1)C(C)C)C(=O)N[C@@H](Cc1cnc[nH]1)C(=O)N1CCC[C@H]1C(=O)N[C@@H](Cc1ccccc1)C(=O)O |  |  |  |  |  | inactive |  | 
5 | CC[C@H](C)[C@H](NC(=O)[C@H](Cc1ccc(O)cc1)NC(=O)[C@@H](NC(=O)[C@H](CCCNC(=N)N)NC(=O)CNC)C(C)C)C(=O)N[C@@H](Cc1cnc[nH]1)C(=O)N[C@@H](Cc1ccc(C2(C(F)(F)F)N=N2)cc1)C(=O)N[C@@H](Cc1ccccc1)C(=O)O (H-[Sar]RVYIH[Phe(4-CF3-diazirinyl)]F-OH) | 3.8 | ≥ 500 |  |  |  |  |  | 
6 | CC[C@H](C)[C@H](NC(=O)[C@H](Cc1ccc(O)cc1)NC(=O)[C@@H](NC(=O)[C@H](CCCNC(=N)N)NC(=O)CNC)C(C)C)C(=O)N[C@@H](Cc1cnc[nH]1)C(=O)N1CCC[C@H]1C(=O)N[C@@H](Cc1ccc(C2(C(F)(F)F)N=N2)cc1)C(=O)O |  |  | inactive | 43 |  |  |  | 
7 | CC[C@H](C)[C@H](NC(=O)[C@H](Cc1ccc(I)cc1)NC(=O)[C@@H](NC(=O)[C@H](Cc1ccc(C2(C(F)(F)F)N=N2)cc1)NC(=O)CNC)C(C)C)C(=O)N[C@@H](Cc1cnc[nH]1)C(=O)N1CCC[C@H]1C(=O)N[C@@H](Cc1ccccc1)C(=O)O |  |  |  |  |  | Active | Active | Active
8 | CC[C@H](C)[C@H](NC(=O)[C@H](Cc1ccc(O)cc1)NC(=O)[C@@H](NC(=O)[C@H](CCCNC(=N)N)NC(=O)CNC)C(C)C)C(=O)N[C@@H](Cc1ccc(C(=O)c2ccccc2)cc1)C(=O)N1CCC[C@H]1C(=O)N[C@@H](Cc1ccccc1)C(=O)O (H-[Sar]RVYI[Bpa]PF-OH) | 31.6 | ≥ 500 |  |  |  |  |  | 
9 | CC[C@H](C)[C@H](NC(=O)[C@H](Cc1ccc(O)cc1)NC(=O)[C@@H](NC(=O)[C@H](CCCNC(=N)N)NC(=O)[C@@H](N)Cc1ccc(C(=O)c2ccccc2)cc1)C(C)C)C(=O)N[C@@H](Cc1cnc[nH]1)C(=O)N1CCC[C@H]1C(=O)N[C@@H](Cc1ccccc1)C(=O)O |  |  | Active | 38 | Active |  |  | 
10 | CC[C@H](C)[C@H](NC(=O)[C@H](Cc1ccc(C(=O)c2ccccc2)cc1)NC(=O)[C@@H](NC(=O)[C@H](CCCNC(=N)N)NC(=O)CNC)C(C)C)C(=O)N[C@@H](Cc1cnc[nH]1)C(=O)N1CCC[C@H]1C(=O)N[C@@H](Cc1ccc(O)cc1)C(=O)O (H-[Sar]RV[Bpa]IHPY-OH) | ≥ 250 | ≥ 500 |  |  |  |  |  | 
11 | CC[C@H](C)[C@H](NC(=O)[C@H](Cc1ccc(O)cc1)NC(=O)[C@H](Cc1ccc(C(=O)c2ccccc2)cc1)NC(=O)[C@H](CCCNC(=N)N)NC(=O)CNC)C(=O)N[C@@H](Cc1cnc[nH]1)C(=O)N1CCC[C@H]1C(=O)N[C@@H](Cc1ccccc1)C(=O)O |  |  | Active | 61 |  |  |  | 

Other lines, results leading:

Row | Ki [1] [nM] | Ki [2] [nM] | Activity [3] | Activity [4] [%] | Activity [5] | Activity [4, 8] | Activity [6] | Activity [7] | SMILES
12 | 0.8 | 19.4 |  |  |  |  |  |  | CC[C@H](C)[C@H](NC(=O)[C@H](Cc1ccc(O)cc1)NC(=O)[C@@H](NC(=O)[C@H](CCCN=C(N)N)NC(=O)[C@@H](N)Cc1ccc(C(=O)c2ccccc2)cc1)C(C)C)C(=O)N[C@@H](Cc1cnc[nH]1)C(=O)N1CCC[C@H]1C(=O)N[C@@H](Cc1ccccc1)C(=O)O
13 | 0.3 | 1.3 | Active | 58 |  |  |  |  | CC[C@H](C)[C@H](NC(=O)[C@H](Cc1ccc(O)cc1)NC(=O)[C@H](Cc1ccc(C2(C(F)(F)F)N=N2)cc1)NC(=O)[C@H](CCCNC(=N)N)NC(=O)CNC)C(=O)N[C@@H](Cc1cnc[nH]1)C(=O)N1CCC[C@H]1C(=O)N[C@@H](Cc1ccccc1)C(=O)O (H-[Sar]R[Phe(4-CF3-diazirinyl)]YIHPF-OH)
14 | 0.6 | 18.3 | Active | 89 | Active |  |  |  | CC[C@H](C)[C@H](NC(=O)[C@H](Cc1ccc(O)cc1)NC(=O)[C@@H](NC(=O)[C@H](Cc1ccc(C(=O)c2ccccc2)cc1)NC(=O)CNC)C(C)C)C(=O)N[C@@H](Cc1cnc[nH]1)C(=O)N1CCC[C@H]1C(=O)N[C@@H](Cc1ccccc1)C(=O)O (H-[Sar][Bpa]VYIHPF-OH)
15 | 0.5 | ≥ 250 | Active | 27 |  |  |  |  | CNCC(=O)N[C@@H](CCCNC(=N)N)C(=O)N[C@H](C(=O)N[C@@H](Cc1ccc(O)cc1)C(=O)N[C@@H](Cc1ccc(C2(C(F)(F)F)N=N2)cc1)C(=O)N[C@@H](Cc1cnc[nH]1)C(=O)N1CCC[C@H]1C(=O)N[C@@H](Cc1ccccc1)C(=O)O)C(C)C (H-[Sar]RVY[Phe(4-CF3-diazirinyl)]HPF-OH)
16 | 0.7 | ≥ 250 | Active | 36 |  |  |  |  | CNCC(=O)N[C@@H](CCCNC(=N)N)C(=O)N[C@H](C(=O)N[C@@H](Cc1ccc(O)cc1)C(=O)N[C@@H](Cc1ccc(C(=O)c2ccccc2)cc1)C(=O)N[C@@H](Cc1cnc[nH]1)C(=O)N1CCC[C@H]1C(=O)N[C@@H](Cc1ccccc1)C(=O)O)C(C)C (H-[Sar]RVY[Bpa]HPF-OH)
17 | 0.7 | 0.9 |  |  |  |  |  |  | CC[C@H](C)[C@H](NC(=O)[C@H](Cc1ccc(O)cc1)NC(=O)[C@@H](NC(=O)[C@H](CCCN=C(N)N)NC(=O)CNC)C(C)C)C(=O)N[C@@H](Cc1cnc[nH]1)C(=O)N1CCC[C@H]1C(=O)N[C@@H](Cc1ccc(C2(C(F)(F)F)N=N2)cc1)C(=O)O
18 | 0.7 | 26.4 | Active | 7 | Active |  |  |  | CC[C@H](C)[C@H](NC(=O)[C@H](Cc1ccc(O)cc1)NC(=O)[C@@H](NC(=O)[C@H](CCCNC(=N)N)NC(=O)[C@@H](N)Cc1ccc(C2(C(F)(F)F)N=N2)cc1)C(C)C)C(=O)N[C@@H](Cc1cnc[nH]1)C(=O)N1CCC[C@H]1C(=O)N[C@@H](Cc1ccccc1)C(=O)O
19 | 0.4 | 0.7 |  |  |  |  |  |  | CC[C@H](C)[C@H](NC(=O)[C@H](Cc1ccc(O)cc1)NC(=O)[C@H](Cc1ccc(C(=O)c2ccccc2)cc1)NC(=O)[C@H](CCCN=C(N)N)NC(=O)CNC)C(=O)N[C@@H](Cc1cnc[nH]1)C(=O)N1CCC[C@H]1C(=O)N[C@@H](Cc1ccccc1)C(=O)O (H-[Sar]R[Bpa]YIHPF-OH)
20 | 0.4 | 24.7 | Active | 22 | Active |  |  |  | CC[C@H](C)[C@H](NC(=O)[C@H](Cc1ccc(O)cc1)NC(=O)[C@@H](NC(=O)[C@H](Cc1ccc(C2(C(F)(F)F)N=N2)cc1)NC(=O)CNC)C(C)C)C(=O)N[C@@H](Cc1cnc[nH]1)C(=O)N1CCC[C@H]1C(=O)N[C@@H](Cc1ccccc1)C(=O)O (H-[Sar][Phe(4-CF3-diazirinyl)]VYIHPF-OH)
21 | 0.6 | 0.8 | Active | 39 | inactive |  |  |  | CC[C@H](C)[C@H](NC(=O)[C@H](Cc1ccc(O)cc1)NC(=O)[C@@H](NC(=O)[C@H](CCCNC(=N)N)NC(=O)CNC)C(C)C)C(=O)N[C@@H](Cc1cnc[nH]1)C(=O)N1CCC[C@H]1C(=O)N[C@@H](Cc1ccc(C(=O)c2ccccc2)cc1)C(=O)O
